Measurements: patent US12590122B2, “NRP-1 binding inhibitory peptides and uses thereof” (priority 2019, dated 2026)
pIC50: −log10 of the molar value. Read-outs that look alike come from different tables or passages of the source. Where a SMILES comes first, the peptide text is derived from it.

Legend:
NRP-1 [1] = target: T1, NRP-1 (Homo sapiens, UniProt O14786); assay: NRP-1 binding assay: inhibition of (bt)-VEGF-A165 binding to immobilized NRP-1, chemiluminescent detection; details: for pIC50: peptides of formula (I), chemiluminescence binding assay, read-out: IC50
T1 sequence (O14786 22-923): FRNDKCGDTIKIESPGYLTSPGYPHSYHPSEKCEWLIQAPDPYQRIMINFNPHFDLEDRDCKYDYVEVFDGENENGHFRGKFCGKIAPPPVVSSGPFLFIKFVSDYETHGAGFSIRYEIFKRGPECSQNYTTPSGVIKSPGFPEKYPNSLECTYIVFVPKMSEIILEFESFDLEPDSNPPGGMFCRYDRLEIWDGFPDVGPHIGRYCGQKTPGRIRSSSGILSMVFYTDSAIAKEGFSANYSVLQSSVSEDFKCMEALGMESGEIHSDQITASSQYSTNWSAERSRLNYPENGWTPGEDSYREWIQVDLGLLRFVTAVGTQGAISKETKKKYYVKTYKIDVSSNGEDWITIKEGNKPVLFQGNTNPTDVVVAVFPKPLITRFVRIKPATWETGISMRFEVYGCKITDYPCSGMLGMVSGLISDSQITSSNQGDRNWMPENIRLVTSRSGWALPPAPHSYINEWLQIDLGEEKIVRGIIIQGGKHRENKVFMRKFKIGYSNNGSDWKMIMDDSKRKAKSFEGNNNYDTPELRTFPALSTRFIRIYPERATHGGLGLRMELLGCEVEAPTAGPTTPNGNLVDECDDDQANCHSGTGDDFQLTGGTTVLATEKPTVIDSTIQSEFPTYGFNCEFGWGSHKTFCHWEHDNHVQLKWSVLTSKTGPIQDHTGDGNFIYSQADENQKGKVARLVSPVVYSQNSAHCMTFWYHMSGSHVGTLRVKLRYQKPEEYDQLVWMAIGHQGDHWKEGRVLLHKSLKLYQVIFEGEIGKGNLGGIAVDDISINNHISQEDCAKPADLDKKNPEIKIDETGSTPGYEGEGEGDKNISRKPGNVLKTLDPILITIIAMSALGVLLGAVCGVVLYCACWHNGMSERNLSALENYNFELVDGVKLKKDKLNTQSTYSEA
Procedure: More precisely, the inventors have shown that the compounds of formula (I) disclosed herein bind to NRP-1 at the nanomolar level whereas the most efficient known inhibitors to date bind to NRP-1 at the micromolar level.
The flat bottom surface of a 96-well plate was coated with 100 μL (200 ng/well) recombinant human NRP-1 and incubated overnight at 4° C. Non-specific binding was blocked by the incubation with 0.5% BSA in PBS. 50 μL of peptide dissolved in PBS in range concentrations and 50 μL (400 ng/mL) of human (bt)-VEGF-A165 in PBS containing 4 μg/mL of heparin were added respectively. After 2 h incubation at room temperature the plate was washed and treated with streptavidin-horseradish peroxidase conjugate in PBS (1:8000). Chemiluminescence was quantified immediately after addition of 100 μL Chemiluminescent substrate. In a positive control only (bt)-VEGF-A165 was present in wells, while, in negative control, wells were not coated by NRP-1. Percentages of inhibition were calculated by the following formula: 100%−[[(S−[…])/(P−NS)]·100%] where S is the signal intensity measured, NS is the signal measured in negative control, and P is the signal measured in positive control.
Selected active branched peptides were tested again using a more sensitive method with chemiluminescent detection. Moreover, some modified compounds were also examined. The IC50 for selected Lys(hArg)-X-X-Arg peptides was between 2-21 μM (Puszko A. K. at al. Neuropilin-1 peptide-like ligands with proline mimetics, tested using the improved chemiluminescence affinity detection method. MedChemComm, 2019, Vol. 10: 332-340).

NRP-1 [2] = target: T1, NRP-1; details: comparative branched peptides without cysteine; colorimetric method; cited from earlier work
NRP-1 [3] = target: T1, NRP-1; details: further comparative branched peptides without cysteine; chemiluminescent detection (Puszko et al. 2019); cited from earlier work

pIC50 (NRP-1 [1])	Compound	pIC50 (NRP-1 [2])	also measured
7.30	N=C(N)NCCCC[C@H](N)C(=O)NCCCC[C@H](NC(=O)[C@@H](N)CS)C(=O)N[C@@H](CCN)C(=O)N1C2CCCCC2C[C@H]1C(=O)N[C@@H](CCCNC(=N)N)C(=O)O (stereo partly drawn) [H-Cys-Lys(hArg)-Dab-Oic-Arg-OH] (HELM PEPTIDE1{C.K.[Dab].[O=C([C@@H]1CC2CCCCC2N1[*:1])[*:2]].R}|PEPTIDE2{[N=C(N)NCCCC[C@H](N)C(=O)[*:2]]}$PEPTIDE1,PEPTIDE2,2:R3-1:R2$$$V2.0)		
7.15	N=C(N)NCCCC[C@H](N)C(=O)NCCCC[C@H](NC(=O)[C@@H](N)CS)C(=O)N[C@@H](CCN)C(=O)N1CC=C[C@H]1C(=O)N[C@@H](CCCNC(=N)N)C(=O)O [H-Cys-Lys(hArg)-Dab-ΔPro-Arg-OH] (HELM PEPTIDE1{C.K.[Dab].[O=C([C@@H]1C=CCN1[*:1])[*:2]].R}|PEPTIDE2{[N=C(N)NCCCC[C@H](N)C(=O)[*:2]]}$PEPTIDE1,PEPTIDE2,2:R3-1:R2$$$V2.0)		
7.40	N=C(N)NCCCC[C@H](NC(=O)[C@@H](N)CS)C(=O)NCCCC[C@H](N)C(=O)N[C@@H](CCN)C(=O)N1C2CCCCC2C[C@H]1C(=O)N[C@@H](CCCNC(=N)N)C(=O)O (stereo partly drawn) [H-Lys(Cys-hArg)-Dab-Oic-Arg-OH] (HELM PEPTIDE1{K.[Dab].[O=C([C@@H]1CC2CCCCC2N1[*:1])[*:2]].R}|PEPTIDE2{C.[N=C(N)NCCCC[C@H](N[*:1])C(=O)[*:2]]}$PEPTIDE1,PEPTIDE2,1:R3-2:R2$$$V2.0)		
7.22	N=C(N)NCCCC[C@H](NC(=O)[C@@H](N)CS)C(=O)NCCCC[C@H](N)C(=O)N[C@@H](CCN)C(=O)N1CC=C[C@H]1C(=O)N[C@@H](CCCNC(=N)N)C(=O)O [H-Lys(Cys-hArg)-Dab-ΔPro-Arg-OH] (HELM PEPTIDE1{K.[Dab].[O=C([C@@H]1C=CCN1[*:1])[*:2]].R}|PEPTIDE2{C.[N=C(N)NCCCC[C@H](N[*:1])C(=O)[*:2]]}$PEPTIDE1,PEPTIDE2,1:R3-2:R2$$$V2.0)		
	N=C(N)NCCCC[C@H](N)C(=O)NCCCC[C@H](N)C(=O)N[C@@H](CCN)C(=O)N1CCC[C@H]1C(=O)N[C@@H](CCCNC(=N)N)C(=O)O [H-Lys(hArg)-Dab-Pro-Arg-OH] (HELM PEPTIDE1{K.[Dab].P.R}|PEPTIDE2{[N=C(N)NCCCC[C@H](N)C(=O)[*:2]]}$PEPTIDE1,PEPTIDE2,1:R3-1:R2$$$V2.0)	6.70	
	N=C(N)NCCCC[C@H](N)C(=O)NCCCC[C@H](N)C(=O)N[C@@H](CN)C(=O)N1CCC[C@H]1C(=O)N[C@@H](CCCNC(=N)N)C(=O)O [H-Lys(hArg)-Dap-Pro-Arg-OH] (HELM PEPTIDE1{K.[NC[C@H](N[*:1])C(=O)[*:2]].P.R}|PEPTIDE2{[N=C(N)NCCCC[C@H](N)C(=O)[*:2]]}$PEPTIDE1,PEPTIDE2,1:R3-1:R2$$$V2.0)	6.70	
	N=C(N)NCCCC[C@H](N)C(=O)NCCCC[C@H](N)C(=O)N1CCC[C@H]1C(=O)N[C@@H](CCN)C(=O)N[C@@H](CCCNC(=N)N)C(=O)O [H-Lys(hArg)-Pro-Dab-Arg-OH] (HELM PEPTIDE1{K.P.[Dab].R}|PEPTIDE2{[N=C(N)NCCCC[C@H](N)C(=O)[*:2]]}$PEPTIDE1,PEPTIDE2,1:R3-1:R2$$$V2.0)	6.70	
	N=C(N)NCCCC[C@H](N)C(=O)NCCCC[C@H](N)C(=O)N1CCC[C@H]1C(=O)N1CCC[C@H]1C(=O)N[C@@H](CCCNC(=N)N)C(=O)O [H-Lys(hArg)-Pro-Pro-Arg-OH] (HELM PEPTIDE1{K.P.P.R}|PEPTIDE2{[N=C(N)NCCCC[C@H](N)C(=O)[*:2]]}$PEPTIDE1,PEPTIDE2,1:R3-1:R2$$$V2.0)	6.00	
	C[C@@H](O)[C@H](N)C(=O)N[C@@H](CCCCN)C(=O)N1CCC[C@H]1C(=O)N[C@@H](CCCNC(=N)N)C(=O)O [TKPR] (H-TKPR-OH; N-terminus and C-terminus assumed)		IC50 (NRP-1 [1]; parent tetrapeptide without N-terminal Cys, VEGF-A165/NRP-1 binding, read-out: IC50 [μM] without Cys): > 100 µM
	H-Lys(hArg)-Dab-Oic-Arg-OH		pIC50 (NRP-1 [3]): 5.64
	H-Lys(hArg)-Oic-Oic-Arg-OH		pIC50 (NRP-1 [3]): 5.14
